This series in a line: solvent given as SMILES.

Compound `CN(C)c1ccc(C2=Nc3sc4c(F)c(F)c(F)c(F)c4[n+]3[B-](F)(F)O2)cc1` yielded an absorption maximum (in C1CCOC1) of 434 nm, an absorption maximum (in CC#N) of 431 nm, an absorption maximum (in Cc1ccccc1) of 431 nm and an absorption maximum (in ClCCl) of 433 nm.
As to `CC(C)(C)c1ccc(-c2ccc(C(C)(C)C)cc2)cc1`, the absorption maximum (in C1CCCCC1) worked out at 256 nm.
Compound `CCOC(=O)c1c(-c2cc3ccccc3oc2=O)nn(-c2ccccc2)c1C(=O)OCC` displayed an absorption maximum (in ClCCl) of 323 nm.
For the compound `c1ccc(-c2ccc(-c3ccc(N(c4ccccc4)c4ccccc4)cc3)c3nsnc23)cc1`, the absorption maximum is, setting by setting: (in C1CCOC1) 437 nm; (in CC(C)=O) 424 nm; (in CCCCCC) 438 nm; (in CCOCC) 435 nm.
Turning to `COc1cc(/C=C2/SC(=O)NC2=O)cc(OC)c1O`, the absorption maximum was determined as 354 nm (in C1CCCCC1); 367 nm (in C1COCCO1); 362 nm (in CC#N); 341 nm (in CN(C)C=O); 359 nm (in CO); 358 nm (in O). Further, the absorption maximum was 364 nm (in OCC(O)CO) and 370 nm (in OCCO).
As for `Cc1nnc(-c2ccc(-n3c4ccccc4c4ccccc43)cc2)o1`, the absorption maximum (in Cc1ccccc1) was 340 nm.
As to `COc1ccc(-c2nc3c(c4c2-c2ccccc2CC4)-c2ccccc2CC3)cc1`, the absorption maximum came to 322 nm (in C1CCOC1); 321 nm (in CC#N); 322 nm (in CCCCCC); 310 nm (in CCOC(C)=O); 318 nm (in CO); 320 nm (in CS(C)=O). The absorption maximum came to 320 nm (in Cc1ccccc1) and 322 nm (in ClCCl).
As to `C(=C\c1nc(/C=C/c2ccc(N(c3ccccc3)c3ccccc3)cc2)cc(/C=C/c2ccc(N(c3ccccc3)c3ccccc3)cc2)n1)/c1ccccc1`, the absorption maximum (in ClCCl) was found to be 430 nm.
`COc1cc2c(cc1-c1ccsc1)Cc1c3c(c4c(c1-2)-c1cc(OC)c(-c2ccsc2)cc1C4)C(=O)N(CCC(C)C)C3=O`: the absorption maximum (in C1CCOC1) worked out at 417 nm.
Turning to `Cc1cc(=O)cc(-c2ccc(-c3nc4ccccn4c3NC3CCCCC3)cc2)o1`, for the setting “in ClCCl”, the absorption maximum was 357 nm.
`Cc1ccccc1-c1ccccc1C` gave an absorption maximum (in C1CCCCC1) of 260.08 nm.
Compound `CC1(C)C(/C=C/C2=C(Oc3ccc(CCN=C=S)cc3Br)C(=C/C=C3/N(CCCS(=O)(=O)[O-])c4ccccc4C3(C)C)/CCC2)=[N+](CCCS(=O)(=O)[O-])c2ccccc21` returned an absorption maximum (in CO) of 768 nm.
On to `O=C(O)C1=C/C(=C/C=[NH+]/c2ccc3c(C(F)(F)F)cc(=O)oc3c2)CC(C(=O)O)N1` (configuration not stated), for which the absorption maximum (in O) was 519 nm.
Take `C[Si]1(C)c2cc(-c3cccs3)ccc2C=Cc2ccc(-c3cccs3)cc21`: the absorption maximum (in ClCCl) is on record as 408 nm.
Under “in Cc1ccccc1”, `COc1cc(C2=c3c(c4ccc(C(C)(C)C)cc4c4c(OC)c(OC)c(OC)cc34)=[N+]3C2=Nc2c(-c4cc(OC)c(OC)c(OC)c4)c4c5cc(OC)c(OC)c(OC)c5c5cc(C(C)(C)C)ccc5c4n2[B-]3(F)F)cc(OC)c1OC` came in with an absorption maximum of 808 nm.
Under “in ClCCl”, `COc1cc2c(cc1OC)C1=C[C@H](c3ccc(Cl)cc3)C3(C(C#N)=C(C#N)N1CC2)c1cc(Cl)ccc1-c1ccc(Cl)cc13` registered an absorption maximum of 314 nm.
With `CC(C)(C)c1ccc2c3c(c4ccc(C(C)(C)C)cc4c2c1)=[N+]1C(=C(c2ccccc2)c2c(Br)c4c5ccc(C(C)(C)C)cc5c5cc(C(C)(C)C)ccc5c4n2[B-]1(F)F)C=3Br`, the absorption maximum is, setting by setting: (in C1CCCCC1) 689 nm; (in C1CCOC1) 686 nm; (in CC#N) 682 nm; (in Cc1ccccc1) 691 nm; (in ClCCl) 689 nm.
The compound `CSc1sc(C(C)=O)c2nn[nH]c(=O)c12` yielded an absorption maximum (in C1CCOC1) of 392.5 nm; an absorption maximum (in CC#N) of 393 nm; an absorption maximum (in CCO) of 397 nm; an absorption maximum (in CN(C)C=O) of 404 nm; an absorption maximum (in CO) of 396 nm; an absorption maximum (in CS(C)=O) of 400.5 nm.
